# Laboratory results taken from patent publication US11730712B2, “Functionalized long-chain hydrocarbon mono- and di-carboxylic acids and derivatives thereof, and their use for the prevention or treatment of disease” (ESPERVITA THERAPEUTICS, INC., priority 2021, dated 2023).
# Test system: liver fibrosis gene panel (770 genes)
# Assay: Nanostring nCounter Fibrosis panel gene expression in liver of DEN-injected mice
# Format: in vivo, mouse
# Conditions: vs vehicle
# Experimental: Nanostring Analysis. RNA was extracted from paired liver and tumor tissue from vehicle, Compound I-1 (100 mg/kg) and Compound I-32 (100 mg/kg) treated mice using an RNeasy kit (Qiagen, Calif., USA) as per manufacturer's protocol. All RNA samples passed the BioAnalyzer quality control test. The expression of target genes in liver and tumor were analyzed using the nCounter Fibrosis and Cancer Panel (NanoString Technologies, Inc., WA, USA), respectively according to manufacturer's protocol at the McMaster Genomics Facility. Technical and biological normalization against global geometric mean was performed in nSolver 4.0 software (NanoString Technologies). Technical normalization was performed in the nSolver software (version 4.0.70) by normalizing sample target raw counts to the geometric mean of positive control spike-ins. Biological normalization was performed by normalizing sample target raw counts to the geometric mean of selected housekeeping genes (Ppia, Nubp1, Nol7, Armh3, Rplp0, Cnot10, Pgk1, and Acad9). Pathway scores were calculated as the first principal component of the normalized expression values for all genes in each pathway and samples were compiled according to experimental groups to determine average pathway scores. Statistical significance was calculated between experimental groups using multiple t-tests and p-values were corrected for multiple comparisons using Benjamin-Hochberg false discovery rate.
# Molecular analysis. To identify the pathways modulated in the liver and tumor tissue, nanostring analysis of fibrosis and cancer, pathways, respectively were completed in an n=8 mice treated with vehicle or Compound I-32 or Compound I-1 at 100 mg/kg.
smiles,measurement,setting,value
"CC(C)(CCCCc1cccc(CCCCC(C)(C)C(=O)O)c1)C(=O)O [Compound I-32, 6-[3-(5-carboxy-5-methylhexyl)-phenyl]-2,2-dimethylhexanoic acid]",Cpt1a Log2FC,"NM_013495, 100 mg/kg",−0.363
same,Creb3 Log2FC,"NM_013497, 100 mg/kg",−0.409
same,P3h3 Log2FC,"NM_013534, 100 mg/kg",−0.96
same,Rora Log2FC,"NM_013646, 100 mg/kg",0.258
same,Slc25a10 Log2FC,"NM_013770, 100 mg/kg",0.324
same,H2-M3 Log2FC,"NM_013819, 100 mg/kg",−0.633
same,Xbp1 Log2FC,"NM_013842, 100 mg/kg",−0.29
same,Col5a1 Log2FC,"NM_015734, 100 mg/kg",−0.601
same,Ero1l Log2FC,"NM_015774, 100 mg/kg",0.269
same,Cfhr1 Log2FC,"NM_015780, 100 mg/kg",−0.283
same,Isg15 Log2FC,"NM_015783, 100 mg/kg",−0.673
same,C6 Log2FC,"NM_016704, 100 mg/kg",−1.04
same,Irf3 Log2FC,"NM_016849, 100 mg/kg",−0.206
same,Actr1a Log2FC,"NM_016860, 100 mg/kg",−0.192
same,Ywhag Log2FC,"NM_018871, 100 mg/kg",0.265
same,Fbp1 Log2FC,"NM_019395, 100 mg/kg",−0.981
same,Ppp2ca Log2FC,"NM_019411, 100 mg/kg",−0.123
same,Atf7ip Log2FC,"NM_019426, 100 mg/kg",−0.289
same,Ndufa1 Log2FC,"NM_019443, 100 mg/kg",0.156
same,Htra2 Log2FC,"NM_019752, 100 mg/kg",−0.286
same,Cpb2 Log2FC,"NM_019775, 100 mg/kg",−0.467
same,Uba52 Log2FC,"NM_019883, 100 mg/kg",0.433
same,Ube2d2a Log2FC,"NM_019912, 100 mg/kg",−0.231
same,Aldh9a1 Log2FC,"NM_019993, 100 mg/kg",0.467
same,Angptl4 Log2FC,"NM_020581, 100 mg/kg",0.413
same,Isg20 Log2FC,"NM_020583, 100 mg/kg",−0.491
same,Abcb11 Log2FC,"NM_021022, 100 mg/kg",−0.503
same,Rps6kb2 Log2FC,"NM_021485, 100 mg/kg",−0.398
same,Cxcl12 Log2FC,"NM_021704, 100 mg/kg",−0.535
same,Apoc3 Log2FC,"NM_023114, 100 mg/kg",−0.391
same,Cxcl16 Log2FC,"NM_023158, 100 mg/kg",−0.445
same,Ern1 Log2FC,"NM_023913, 100 mg/kg",−0.451
same,Sec61b Log2FC,"NM_024171, 100 mg/kg",−0.37
same,Hsbp1 Log2FC,"NM_024219, 100 mg/kg",−0.155
same,Cyp27a1 Log2FC,"NM_024264, 100 mg/kg",−0.71
same,Fabp4 Log2FC,"NM_024406, 100 mg/kg",0.887
same,Ndufb5 Log2FC,"NM_025316, 100 mg/kg",0.36
same,Ssr2 Log2FC,"NM_025448, 100 mg/kg",−0.208
same,Psenen Log2FC,"NM_025498, 100 mg/kg",−0.154
same,Ndufc1 Log2FC,"NM_025523, 100 mg/kg",0.363
same,Cox6b1 Log2FC,"NM_025628, 100 mg/kg",0.405
same,Uqcrh Log2FC,"NM_025641, 100 mg/kg",0.28
same,Uqcrfs1 Log2FC,"NM_025710, 100 mg/kg",0.188
same,Map1lc3a Log2FC,"NM_025735, 100 mg/kg",0.744
same,Ndufb8 Log2FC,"NM_026061, 100 mg/kg",0.279
same,Erp29 Log2FC,"NM_026129, 100 mg/kg",−0.277
same,Uqcrb Log2FC,"NM_026219, 100 mg/kg",0.377
same,Sugt1 Log2FC,"NM_026474, 100 mg/kg",0.15
same,Atg101 Log2FC,"NM_026566, 100 mg/kg",−0.483
same,Ndufs3 Log2FC,"NM_026688, 100 mg/kg",0.148
same,Ifi35 Log2FC,"NM_027320, 100 mg/kg",−0.447
same,Pgm2 Log2FC,"NM_028132, 100 mg/kg",0.339
same,Phykpl Log2FC,"NM_028398, 100 mg/kg",−0.288
same,Pik3cb Log2FC,"NM_029094, 100 mg/kg",−0.412
same,Hcar2 Log2FC,"NM_030701, 100 mg/kg",1.41
same,Cpn1 Log2FC,"NM_030703, 100 mg/kg",0.351
same,Slc2a2 Log2FC,"NM_031197, 100 mg/kg",−0.47
same,Lamtor2 Log2FC,"NM_031248, 100 mg/kg",0.189
same,Dock2 Log2FC,"NM_033374, 100 mg/kg",−0.474
same,Ube2n Log2FC,"NM_080560, 100 mg/kg",−0.194
same,Elovl6 Log2FC,"NM_130450, 100 mg/kg",1.22
same,Acaca Log2FC,"NM_133360, 100 mg/kg",0.893
same,Fgg Log2FC,"NM_133862, 100 mg/kg",−0.387
same,Acacb Log2FC,"NM_133904, 100 mg/kg",0.681
same,Il1rap Log2FC,"NM_134103, 100 mg/kg",−0.868
same,Ptpa Log2FC,"NM_138748, 100 mg/kg",0.222
same,Mylk Log2FC,"NM_139300, 100 mg/kg",−0.532
same,Fegr4 Log2FC,"NM_144559, 100 mg/kg",−0.638
same,Aldob Log2FC,"NM_144903, 100 mg/kg",−0.6
same,C1s1 Log2FC,"NM_144938, 100 mg/kg",−0.755
same,Txndc5 Log2FC,"NM_145367, 100 mg/kg",−0.321
same,Ldlrap1 Log2FC,"NM_145554, 100 mg/kg",−0.189
same,Jak1 Log2FC,"NM_146145, 100 mg/kg",−0.166
same,C8a Log2FC,"NM_146148, 100 mg/kg",−1.37
same,Pkhdi Log2FC,"NM_153179, 100 mg/kg",−1.12
same,Nckap1l Log2FC,"NM_153505, 100 mg/kg",−0.653
same,Mbtps2 Log2FC,"NM_172307, 100 mg/kg",0.306
same,Cyp4a12a Log2FC,"NM_177406, 100 mg/kg",1.42
same,Acaa2 Log2FC,"NM_177470, 100 mg/kg",0.314
same,Jmjd4 Log2FC,"NM_178659, 100 mg/kg",−0.516
same,Nceh1 Log2FC,"NM_178772, 100 mg/kg",0.444
same,Hadha Log2FC,"NM_178878, 100 mg/kg",0.903
same,Mfap3 Log2FC,"NM_180599, 100 mg/kg",−0.362
same,Bst2 Log2FC,"NM_198095, 100 mg/kg",0.494
same,Acsl4 Log2FC,"NM_207625, 100 mg/kg",0.737
same,Cflar Log2FC,"NM_207653, 100 mg/kg",−0.25
same,Egfr Log2FC,"NM_207655, 100 mg/kg",−0.93
same,Stat3 Log2FC,"NM_213659, 100 mg/kg",−0.686
same,H2-K1 Log2FC,"NM_001001892, 100 mg/kg",−0.168
same,Kdm2a Log2FC,"NM_001001984, 100 mg/kg",−0.255
same,Cfhr2 Log2FC,"NM_001025575, 100 mg/kg",−0.596
same,Ndufs5 Log2FC,"NM_001030274, 100 mg/kg",0.381
same,Itga1 Log2FC,"NM_001033228, 100 mg/kg",−0.312
same,Dock1 Log2FC,"NM_001033420, 100 mg/kg",−0.347
same,Xaf1 Log2FC,"NM_001037713, 100 mg/kg",−0.701
same,Banf1 Log2FC,"NM_001038231, 100 mg/kg",0.339
same,Smurf Log2FC,"NM_001038627, 100 mg/kg",−0.969
same,Seh1l Log2FC,"NM_001039088, 100 mg/kg",0.216
same,Nrp2 Log2FC,"NM_001077403, 100 mg/kg",0.619
same,Ptafr Log2FC,"NM_001081211, 100 mg/kg",−0.408
same,Brpf3 Log2FC,"NM_001081315, 100 mg/kg",0.3
same,Aqp8 Log2FC,"NM_001109045, 100 mg/kg",−0.632
same,Igf1 Log2FC,"NM_001111274, 100 mg/kg",−0.588
same,Itga9 Log2FC,"NM_001113514, 100 mg/kg",−0.212
same,Il1r1 Log2FC,"NM_001123382, 100 mg/kg",−1.16
same,Aldh7a1 Log2FC,"NM_001127338, 100 mg/kg",−0.344
same,Rnf152 Log2FC,"NM_001160368, 100 mg/kg",−0.687
same,Cyfip1 Log2FC,"NM_001164661, 100 mg/kg",−0.229
same,Slc25a13 Log2FC,"NM_001177572, 100 mg/kg",−0.179
same,Syk Log2FC,"NM_001198977, 100 mg/kg",−0.772
same,Cd84 Log2FC,"NM_001252472, 100 mg/kg",−0.6
same,Apoc2 Log2FC,"NM_001277944, 100 mg/kg",−0.94
same,Ncf1 Log2FC,"NM_001286037, 100 mg/kg",−0.635
same,Cd68 Log2FC,"NM_001291058, 100 mg/kg",−0.732
same,Itga5 Log2FC,"NM_001314041, 100 mg/kg",−0.402
same,Col6a3 Log2FC,"XM_897036, 100 mg/kg",−0.679
